According to patent publication US8785184B2, “Differentiation of human embryonic stem cells” (Janssen Biotech, Inc., priority 2009, dated 2014):

Experiments:
[1] = system: human embryonic stem cell line H1; test: Immunofluorescence analysis of cultures at stage 3 day 4 (Example 1); format: cell-based
Procedure: (§1) Cells of the human embryonic stem cell line H1 were cultured on MATRIGEL-coated plates (1:30 dilution), and differentiated into pancreatic endocrine precursor cells using the following protocol: • a.
(§2) Cultures were sampled in duplicate on stage 3 day 4, and analyzed for expression of pancreatic markers using real-time PCR. Cultures also were fixed in parallel for immunofluorescence analysis.

[2] = system: human embryonic stem cells line H1; conditions: stage 4 day 3
Procedure: (§3) Briefly, cells of the human embryonic stem cells line H1 were cultured on […]™ coated dishes (1:30 dilution) with RPMI medium+2% BSA+100 ng/ml activin A+20 ng/ml WNT-3a+8 ng/ml of bFGF for one day followed by treatment with RPMI media+2% BSA+100 ng/ml activin A+8 ng/ml of bFGF for an additional two days (Stage 1), then • a. DMEM/F12+2% BSA+50 ng/ml FGF7 for three days (Stage 2), then • b. DMEM-High glucose+1% B27+50 ng/ml FGF7+0.25 μM Cyclopamine-KAAD+2 μM Retinoic acid (RA)+100 ng/ml of Noggin+20 ng/ml Activin A for four days (Stage 3), then • c. DMEM-High glucose+1% B27+100 ng/ml Noggin+1 μM ALK5 inhibitor II for three days (Stage 4), or • d. DMEM-High glucose+1% B27 only for three days (Stage 4).
Pancreatic endocrine precursor cells express NGN3.

[3] = system: human embryonic stem cells line H1; conditions: stage 4; immunocytochemistry (FIG. 6)
Procedure: as §3

[4] = system: human embryonic stem cell line H1; test: Real-time PCR of pancreatic markers at stage 3 day 4 (Example 1); format: cell-based
Procedure: Cultures were sampled in duplicate on stage 3 day 4, and analyzed for the expression of pancreatic markers using real-time PCR.
as §1, §2

[5] = 1 μM ALK5 inhibitor II + 100 ng/ml Noggin vs basal medium (FIG. 5)
[6] = 1 μM ALK5 inhibitor II + 100 ng/ml Noggin vs basal medium (FIG. 5 panel b)
[7] = replacement of activin A in treatment 2, four days, stage 3 day 4 (FIG. 4)

What does the source list for `Cc1cccc(-c2[nH]ncc2-c2ccc3ncccc3n2)n1` [Alk5 inhibitor II, ALK5 inhibitor II]?
number of NGN3 expressing cells ([1]; 1 μM ALK5 inhibitor II added to treatment 1 (Table 1, FIG. 2 panel f)): significantly increased; NGN3 expression [2, 5]: significant increase; expression of NEUROD [2, 5]: up regulation; expression of NKX2.2 [2, 5]: up regulation; expression of PAX4 [2, 5]: up regulation; expression of PAX6 [2, 5]: up regulation; expression of PTF1 alpha [2, 5]: increase; expression of NKX6.1 [2, 6]: did not appear to affect; expression of PDX1 [2, 6]: did not appear to affect; number of cells positive for NGN3 protein [3]: increase; PDX1 expression ([4]; stage 3 day 4, 1 μM ALK5 inhibitor II added to treatment 1): No significant impact; level of expression of NKX6.1 ([4]; stage 3 day 4, 1 μM ALK5 inhibitor II added to treatment 1, compared with treatment 1): decrease

For GDF-8, which PDX1 expression [4, 7] is on record?
The PDX1 expression was “No significant impact”.

What about the “expression of NGN3” value [4, 7] of the same molecule?
The value was “down-regulation”.

And the “expression of NKX6.1” value [4, 7]?
The value was “increase”.

B1: activin B (protein, UniProt P09529 293-407, looked up)
Inhibin beta B chain: GLECDGRTNLCCRQQFFIDFRLIGWNDWIIAPTGYYGNYCEGSCPAYLAGVPGSASSFHTAVVNQYRMRGLNPGTVNSCCIPTKLSTMSMLYFDDEYNIVKRDVPNMIVEECGCA
modifications: Inhibin beta B chain
notes: TGFβ receptor agonist
Which PDX1 expression [4, 7] does the source give for B1 here?
The PDX1 expression was “No significant impact”.

What about the “expression of NGN3” value [4, 7] of the same molecule?
Its value is “down-regulation”.

And the “expression of NKX6.1” value [4, 7]?
Its value is “increase”.

B2: activin A (protein, UniProt P08476 311-426, looked up)
Inhibin beta A chain: GLECDGKVNICCKKQFFVSFKDIGWNDWIIAPSGYHANYCEGECPSHIAGTSGSSLSFHSTVINHYRMRGHSPFANLKSCCVPTKLRPMSMLYYDDGQNIIKKDIQNMIVEECGCS
modifications: Inhibin beta A chain
notes: TGFβ receptor agonist (R&D Systems)
Which results are given for B2?
expression of NGN3 ([1]; immunofluorescence (FIG. 2)): blocked the expression; number of NKX6.1 expressing cells ([1]; immunofluorescence (FIG. 2), 20 ng/ml activin A added to treatment 1): significantly increased; NGN3 expression ([4]; stage 3 day 4, 20 or 50 ng/ml activin A with FGF7, cyclopamine-KAAD, retinoic acid, Noggin (FIG. 1)): down-regulation; NKX6.1 expression ([4]; stage 3 day 4, 20 or 50 ng/ml activin A with FGF7, cyclopamine-KAAD, retinoic acid, Noggin, compared to cells receiving no activin A (FIG. 1)): dramatic increase

B3: TGFβ2 (protein, UniProt P61812 303-414, looked up)
Transforming growth factor …: ALDAAYCFRNVQDNCCLRPLYIDFKRDLGWKWIHEPKGYNANFCAGACPYLWSSDTQHSRVLSLYNTINPEASASPCCVSQDLEPLTILYYIGKTPKIEQLSNMIVKSCKCS
notes: TGFβ receptor agonist
B3 was tested. Which PDX1 expression [4, 7] did it give?
The PDX1 expression was “No significant impact”.

And the “expression of NGN3” value [4, 7]?
Its value is “down-regulation”.

And the “expression of NKX6.1” value [4, 7]?
Its value is “increase”.

B4: GDF-11 (protein, UniProt O95390 299-407, looked up)
Growth/differentiation factor …: NLGLDCDEHSSESRCCRYPLTVDFEAFGWDWIIAPKRYKANYCSGQCEYMFMQKYPHTHLVQQANPRGSAGPCCTPTKMSPINMLYFNDKQQIIYGKIPGMVVDRCGCS
notes: TGFβ receptor agonist
How did the PDX1 expression [4, 7] turn out when B4 was run?
Its PDX1 expression is “No significant impact”.

And the “expression of NGN3” value [4, 7]?
Its value is “down-regulation”.

And the “expression of NKX6.1” value [4, 7]?
The value was “increase”.
